Results on nine compounds are retold here after paper PMC10831071, “Reaction hijacking inhibition of Plasmodium falciparum asparagine tRNA synthetase” (Nature Communications, 2024).

One assay addresses T1, HsAsnRS (Homo sapiens, UniProt O43776).
T1 construct: HsAsnRS (residues M1–P548) and CDHsAsnRS (residues A98–P548); His6 (N, cleaved yes); made in house; host or cells: E. coli BL21 (DE3), pET11a
T1 sequence (O43776 1-548): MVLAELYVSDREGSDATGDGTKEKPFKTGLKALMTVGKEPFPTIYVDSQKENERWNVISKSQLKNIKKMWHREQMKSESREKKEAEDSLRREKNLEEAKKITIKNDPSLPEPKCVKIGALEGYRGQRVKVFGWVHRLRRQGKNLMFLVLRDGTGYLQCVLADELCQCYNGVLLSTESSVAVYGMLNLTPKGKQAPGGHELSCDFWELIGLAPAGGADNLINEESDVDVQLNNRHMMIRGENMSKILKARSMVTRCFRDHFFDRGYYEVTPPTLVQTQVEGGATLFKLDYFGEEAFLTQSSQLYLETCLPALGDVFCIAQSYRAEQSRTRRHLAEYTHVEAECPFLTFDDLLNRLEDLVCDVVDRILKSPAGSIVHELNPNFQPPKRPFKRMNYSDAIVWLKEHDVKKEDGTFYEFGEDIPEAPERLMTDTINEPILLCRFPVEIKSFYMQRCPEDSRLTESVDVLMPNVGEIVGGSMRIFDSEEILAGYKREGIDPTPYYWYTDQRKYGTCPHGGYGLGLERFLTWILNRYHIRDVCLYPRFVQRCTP
In words: ATP consumption assay (Kinase-Glo), HsAsnRS. It counts as biochemical. As to conditions: for ATP consumption: HsAsnRS.

Another assay has as its target PfAsnRS (Plasmodium falciparum, UniProt O96198). In words: biochemical. To be noted: for ATP consumption: PfAsnRS.
Assay [1] relates to DSM265-selected recrudescent Dd2-B2 cultures (G7, F3). In words: Sensitivity of DSM265-selected bulk recrudescent cultures. Format: cell-based, Plasmodium falciparum. To be noted: for IC50: Plasmodium falciparum.
Assay [2] relates to P. falciparum Dd2-B2 clone. In words: microbe, parasite or virus in culture. It counts as cell-based, Plasmodium falciparum. An excerpt:
Wells were monitored daily by smear during the first 7 days to ensure parasite clearance, during which media was changed daily. […] Whole-genome sequencing analysis employed MiSeq data from libraries of 2 × 300 bp paired end reads.

The test system of a further assay is P. falciparum (3D7). In words: Activity against P. falciparum 3D7 cultures, 72 h (PfLDH growth inhibition / flow cytometry). Format: cell-based, Plasmodium falciparum. As for the experimental part:
Antimalarial activity against P. falciparum 3D7 was tested by TCGLS, Kolkata, India, using the lactate dehydrogenase (PfLDH) growth inhibition assay. […] Plates were shaken to ensure mixing and were placed in the dark at 21 °C for 20 min. […] P. falciparum strain (3D7) was obtained from BEI Resources.
Viability was assessed in the second cycle by flow cytometry, following labeling with 2 μM Syto-61 (Thermo Fisher Scientific)[48],[49]. Viability represents the parasitemia normalized to untreated and “kill” controls that were treated with 2 μM dihydroartemisinin (DHA; Sigma-Aldrich) for 48–72 h. For drug pulse assays, tightly synchronized Cam3.II-rev[50] parasites (1–1.5% parasitemia, 0.2% final hematocrit) were added to the plates and incubated for 6 h. Drugs were removed and the parasitemia assessed in the trophozoite stage of the next cycle.
On the technique in general: Flow cytometry measures light scatter and fluorescence of single cells or particles in a stream.

The mark [3] stands for this setting: Plasmodium falciparum, 3D7, 72 h, read-out: Pf3D7 IC50 (72h), individual biological repeats (source data of Table 1).
Where [4] appears, read: Plasmodium falciparum, 3D7, 72 h, read-out: Pf3D7 IC50(72 h), 72 h, mean ± SD or duplicate values.
Setting [5] is: Plasmodium falciparum, 3D7, read-out: activity against 3D7 cultures, value of earlier manuscript version quoted by reviewer, peer review file.
The mark [6] stands for this setting: read-out: Pf3D7 IC50 (72h), individual biological repeats (source data of Table 1).

Several values for one entry are separate records, joined by “and”; a condition that tells them apart may be missing. Identical values can stand only once. Like-named read-outs stand apart in the source and are kept apart here. A value given as a limit tells only on which side of the number the result lay.

PfAsnRS, sequence (O96198 entry or part of it): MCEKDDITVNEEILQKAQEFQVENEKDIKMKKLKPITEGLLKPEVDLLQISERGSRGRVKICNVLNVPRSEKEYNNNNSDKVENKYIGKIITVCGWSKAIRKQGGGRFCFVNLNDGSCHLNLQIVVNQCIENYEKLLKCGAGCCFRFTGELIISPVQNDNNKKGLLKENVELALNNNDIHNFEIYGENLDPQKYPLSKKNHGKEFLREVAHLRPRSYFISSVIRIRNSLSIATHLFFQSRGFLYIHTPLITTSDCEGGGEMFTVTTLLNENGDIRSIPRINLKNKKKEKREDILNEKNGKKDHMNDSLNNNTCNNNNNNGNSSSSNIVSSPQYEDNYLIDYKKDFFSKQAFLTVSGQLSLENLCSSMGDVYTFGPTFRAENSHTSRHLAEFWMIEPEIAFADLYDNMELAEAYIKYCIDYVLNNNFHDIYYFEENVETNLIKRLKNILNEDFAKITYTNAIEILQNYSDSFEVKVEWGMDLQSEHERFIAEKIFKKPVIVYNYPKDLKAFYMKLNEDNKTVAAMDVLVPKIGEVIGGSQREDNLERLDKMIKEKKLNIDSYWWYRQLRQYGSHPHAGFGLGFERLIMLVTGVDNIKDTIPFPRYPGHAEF

For `NC(=O)C[C@H](N)C(=O)NS(=O)(=O)c1cccc(-c2cc3ncnc(N)c3s2)c1` [Asn-OSM-S-106], the ATP consumption is 1 and 0.9164 and 0.9986 at HsAsnRS (0.1 μM Asn-OSM-S-106, normalised to 1 (Fig 3E)); 0.9525 and 1 on HsAsnRS (0.3 μM Asn-OSM-S-106, normalised to 1 (Fig 3E)); 0.8864 and 0.9489 and 0.9329 at HsAsnRS (1 μM Asn-OSM-S-106, normalised to 1 (Fig 3E)); 0.7684 and 0.8281 and 0.785 at HsAsnRS (3 μM Asn-OSM-S-106, normalised to 1 (Fig 3E)); 0.5231 and 0.5272 and 0.5151 on HsAsnRS (10 μM Asn-OSM-S-106, normalised to 1 (Fig 3E)); 0.2926 and 0.3365 and 0.2915 on HsAsnRS (30 μM Asn-OSM-S-106, normalised to 1 (Fig 3E)). Also, the ATP consumption on HsAsnRS (100 μM Asn-OSM-S-106, normalised to 1 (Fig 3E)) was 0.09965 and 0.131 and 0.08856; on PfAsnRS (0.005 μM Asn-OSM-S-106, 0 μM = 100 (Fig 3F), 0.005 µM), 96.6227 and 115.849 and 86.517 and 87.5323; on PfAsnRS (0.05 μM Asn-OSM-S-106, 0 μM = 100 (Fig 3F), 0.05 µM) it was 102.641 and 101.648 and 126.552 and 109.716 and 83.8806 and 85.0945; at PfAsnRS (0.1 μM Asn-OSM-S-106, normalised to 1 (Fig 3E), 0.1 µM), 0.9937 and 0.8109; at PfAsnRS (0.5 μM Asn-OSM-S-106, 0 μM = 100 (Fig 3F), 0.5 µM), 95.6169 and 98.8652 and 117.558 and 102.603 and 76.814 and 78.5601; at PfAsnRS (1 μM Asn-OSM-S-106, normalised to 1 (Fig 3E), 1 µM), 0.8236 and 0.8406. For the same compound, the ATP consumption is 0.3452 and 0.4265 on PfAsnRS (3 μM Asn-OSM-S-106, normalised to 1 (Fig 3E), 3 µM); 0.09706 and 0.1733 on PfAsnRS (10 μM Asn-OSM-S-106, normalised to 1 (Fig 3E), 10 µM). In addition, the IC50 against HsAsnRS (0.5 μM enzyme without tRNA (Fig. 3E)) turned out to be 12 µM.

`Cc1cc(Nc2ccc(S(F)(F)(F)(F)F)cc2)n2nc(C(C)(F)F)nc2n1` [DSM265]: the “Fold Shift” value in assay [1] (DSM265_F3 vs Dd2-B2 parent) turned out to be 2.5; in assay [1] (DSM265_G7 vs Dd2-B2 parent) it was 3.1. Further, the IC50 was 0.0566 µM in assay [1] (read-out: Mean IC50 + SEM (N), recrudescent culture DSM265_F3); 0.071 µM in assay [1] (read-out: Mean IC50 + SEM (N), recrudescent culture DSM265_G7); 0.0226 µM in assay [2] (Plasmodium falciparum, DD2, read-out: Mean IC50 + SEM (N)). In addition, the “Minimum Inoculum for Resistance (MIR)” value in assay [2] (reference selection at 5 × IC50 (58 nM), 2 × 10^5 parasites per well, 96 wells) was 1.4 × 10^6 parasites. The recrudescent wells in assay [2] (reference selection at 5 × IC50 (58 nM), 96-well plate) is 14 and 14/96.

For the compound `Cc1ccc(S(N)(=O)=O)cc1-c1cc2ncnc(N)c2s1` [OSM-E-32], the IC50 in the assay with P. falciparum (3D7) (setting [3]) was 8.33 µM.

Consider `Nc1ncnc2cc(-c3cccc(OS(N)(=O)=O)c3)sc12` [OSM-LO-80], for which the IC50 in the assay on P. falciparum (3D7) (setting [4]) is 5.1 ± 3.2 µM; in the assay with P. falciparum (3D7) (setting [5]), 2.1 µM; in the assay with P. falciparum (3D7) (setting [6]), 1.72 µM and 1.7 µM and 8 µM and 8.04 µM and 8.28 µM and 7.95 µM and 2.49 µM and 2.41 µM; on HsAsnRS (0.2 μM HsAsnRS, E. coli tRNA present, 37 °C, 1 h (Fig. 3C, D)), > 100 µM; on PfAsnRS, > 100 µM. For the same compound, the ATP consumption on HsAsnRS (0.1 μM OSM-LO-80, normalised to 1 (Fig 3C)) was 0.9993 and 0.9657 and 0.9905; on HsAsnRS (1 μM OSM-LO-80, normalised to 1 (Fig 3C)), 1 and 0.9892 and 0.9767; on HsAsnRS (3 μM OSM-LO-80, normalised to 1 (Fig 3C)), 0.9847 and 1 and 0.9888; at HsAsnRS (10 μM OSM-LO-80, normalised to 1 (Fig 3C)), 1.009 and 0.9926 and 0.9928; on HsAsnRS (30 μM OSM-LO-80, normalised to 1 (Fig 3C)) it was 0.9786 and 0.9717 and 1; at HsAsnRS (100 μM OSM-LO-80, normalised to 1 (Fig 3C)), 0.9628 and 0.9785 and 0.9921. Also, the ATP consumption is 0.9991 on PfAsnRS (0.1 μM OSM-LO-80, normalised to 1 (Fig 3C), 0.1 µM); 0.918 and 0.9991 at PfAsnRS (1 μM OSM-LO-80, normalised to 1 (Fig 3C), 1 µM); 0.8254 and 0.8439 on PfAsnRS (3 μM OSM-LO-80, normalised to 1 (Fig 3C), 3 µM); 0.7121 and 0.7363 at PfAsnRS (10 μM OSM-LO-80, normalised to 1 (Fig 3C), 10 µM); 0.597 and 0.5984 at PfAsnRS (30 μM OSM-LO-80, normalised to 1 (Fig 3C), 30 µM); 0.5737 and 0.5517 at PfAsnRS (100 μM OSM-LO-80, normalised to 1 (Fig 3C), 100 µM).

As to `Nc1ncnc2cc(-c3cccc(COS(N)(=O)=O)c3)sc12` [OSM-LO-81], the IC50 was 0.93 ± 0.24 µM in the assay on P. falciparum (3D7) (setting [4]); 1.1 µM with P. falciparum (3D7) (setting [3]); 0.9 µM in the assay on P. falciparum (3D7) (setting [5]); 1.33 µM and 0.74 µM and 0.761 µM and 0.909 µM and 0.753 µM in the assay on P. falciparum (3D7) (setting [6]).

In the case of `NS(=O)(=O)c1cccc(-c2ccc3c(=O)[nH]cnc3c2)c1` [OSM-LO-87], the “antimalarial potency (in words)” value with P. falciparum (3D7) (3D7 cultures) is given as “no antimalarial potency”. The IC50 with P. falciparum (3D7) (setting [4]), with P. falciparum (3D7) (setting [3]) and in the assay with P. falciparum (3D7) (setting [6]) was > 25 µM in each case.

`NS(=O)(=O)c1cccc(-c2cc3nc[nH]c(=O)c3s2)c1` [OSM-LO-88]: the IC50 in the assay on P. falciparum (3D7) (setting [4]) was 18.7 ± 1.8 µM; in the assay with P. falciparum (3D7) (setting [3]), 19.2 µM; in the assay on P. falciparum (3D7) (setting [6]), 21.9 µM and 18.6 µM and 17.5 µM and 16.5 µM.

`NS(=O)(=O)c1cccc(-c2cc3ncnc(N4CCN(Cc5ccc(F)cc5)CC4)c3s2)c1` [OSM-S-137]: the IC50 in the assay with P. falciparum (3D7) (setting [4]) is 4.4 ± 3 µM; with P. falciparum (3D7) (setting [6]), 2.65 µM and 1.2 µM and 6.07 µM and 7.69 µM.

`CNS(=O)(=O)c1cccc(-c2cc3ncnc(N)c3s2)c1` [OSM-S-488]: the figures for the IC50 in the assay on P. falciparum (3D7) (setting [3]) and with P. falciparum (3D7) (setting [6]) were 12.7 µM and 13.8 µM, respectively.
